Results reported in patent US8642040B2, “Methods for promoting myelination, neuronal survival and oligodendrocyte differentiation via administration of Sp35 or TrkA antagonists” (Biogen Idec MA Inc., priority 2006, dated 2014).

What was measured:
Assay type in all cases: cell-based, rat
[1] = tested on: DRG-oligodendrocyte co-cultures; test: DRG-oligodendrocyte co-culture myelination, Western blot for MBP and MAG; conditions: FIG. 7
Description: CNS myelination in the presence of NGF and either an Sp35 antagonist (Sp35-DN) or a TrkA antagonist (TrkA-DN) was examined. 3 week old DRG and oligodendrocyte cocultures (prepared as described in Example 3) were infected with lentiviruses, at an MOI of 2 per cell, expressing either full-length or dominant negative Sp35, full-length or dominant negative Nogo Receptor, full-length or dominant negative Taj, full-length or dominant negative p75, and full-length or dominant negative TrkA. Lentiviruses were prepared as described in Example 3 and as follows. Rat p75 full length (FL-p75, amino acid residues 1-425), p75 dominant negative (DN-p75, amino acid residues 1-275), human TrkA full length (FL-TrkA, amino acid residues 1-796), TrkA dominant negative (DN-TrkA, amino acid residues 1-441), human Taj full length (FL-Taj, amino acid residues 1-417), Taj dominant negative (DN-Taj, amino acid residues 1-192), rat Nogo receptor full length (FL-NgR, amino acid residues 1-473), Nogo receptor dominant negative (DN-NgR, amino acid residues 28-310). DNA sequence was inserted into the NotI and BamHI sites of HRST-IRESeGFP lentivirus vector. Plasmids were transfected into 293 cells to produce lentivirus as described in Rubinson et al. Nat. Genetics 33:401-406 (2003).
Co-culture lysates were examined at 3 weeks and analyzed by Western blot as described previously. The blots were probed with polyclonal antibodies to MAG and to MBP. The myelin proteins MAG and MBP were used as markers for myelination.
The TrkA compound antagonist K525a was also tested in DRG-oligodendrocyte cocultures for its ability to promote myelination.
The myelin proteins MAG and MBP were used to determine whether TrkA was upstream of Sp35 in inhibiting myelination in DRG-oligodendrocyte co-cultures. Oligodendrocyte-DRG co-cultures were prepared as described in Example 3. […]
Fresh media was changed every three days. […] Lysates were subjected to 4-20% SDS-PAGE, and analyzed by Western blotting with an antibody to MBP, MAG and Sp35. […]

[2] = tested on: Oligodendrocyte/DRG co-cultures; test: Oligodendrocyte/DRG co-culture myelination, MBP immunofluorescence
Method: Enriched populations of oligodendrocytes were grown from Female Long Evans post-natal day 2 (P2) rats. Briefly, the forebrain was dissected out and placed in Hank's buffered salt solution (HBSS) (Invitrogen, Grand Island, N.Y.). The tissue was cut into 1 mm fragments and incubated at 37° C. for 15 min in 0.01% trypsin and 10 μg/ml DNase. Dissociated cells were plated on poly-L-lysine-coated T75 tissue culture flasks and grown at 37° C. for 10 days in DMEM medium with 20% fetal calf serum (Invitrogen). Oligodendrocyte precursors (A2B5+) were collected by shaking the flask overnight at 200 rpm at 37° C., resulting in a 95% pure population. Cultures were maintained in high glucose DMEM medium containing FGF/PDGF (Peprotech) (10 ng/ml) for 1 week.
DRG cultures were prepared as follows. Embryonic dorsal root ganglia (DRG) neurons were grown in vitro as previously described in Mi et al., Nat. Neurosci. 8:745-51 (2005) and Kleitman et al. “Tissue culture methods for the study of myelination.” Culturing Nerve Cells. Banker and Goslin, eds. Cambridge Mass.: MIT Press, 337-377 (1991). Briefly, dorsal root ganglia, dissected from embryonic day 15 (E15) Long Evans rats, were plated on poly-D-lysine (100 μg/ml)-coated cover slips for 2 weeks and grown in Neurobasal medium supplemented with B27 (Invitrogen) in the presence or absence of 100 ng/ml nerve growth factor (BD Biosciences). To remove proliferating glial cells, the cultures were pulsed twice with fluorodeoxyuridine (20 μM) from days 2-6 and from days 8-10.
Oligodendrocyte-DRG co-cultures were prepared as follows. A2B5+ oligodendrocyte progenitor cells and DRG neuron drop cultures were prepared as above. One day after oligodendrocyte progenitors were added to DRG neurons, co-cultures were infected with lentivirus expressing GFP (control), dominant-negative Sp35 or full length Sp35 at 2 MOI per cell. DNA sequences used for lentiviral construction were, mouse Sp35 full length (FL-Sp35, encoding amino acid residues 34-614), Sp35 dominant negative (DN-Sp35, encoding amino acid residues 34-581). DNA sequences were inserted into the NotI and BamHI sites of HRST-IRESeGFP lentivirus vector. Plasmids were transfected into 293FT cells to produce lentivirus as described in Rubinson et al. Nat. Genetics 33:401-406 (2003).
Oligodendrocyte/DRG co-cultures were prepared as described in Example 3. The co-cultures were treated with increasing concentrations of Sp35-Fc or control-Fc for 3 weeks. Monoclonal antibodies against MBP were used to determine MBP protein concentration and for immunofluorescence experiments (Sternberger Monoclonals). […]

Sp35 [3] = test: RT-PCR for Sp35 in purified DRGs with or without NGF; conditions: 100 ng/ml NGF for 24 hours; FIG. 9A
Method: RT-PCR for TrkA, Sp35 and GAPDH was performed on purified OPCs, SCs and DRGs in the presence or absence of NGF or BDNF as follows. Cultures of OPCs, SCs and DRGs were prepared as described above. Wells of the tissue culture dishes were treated with either 100 ng/ml of NGF or 100 ng/ml of BDNF for 24 hours prior to mRNA isolation. Cellular mRNA was extracted using the Absolutely RNA miniprep kit (Stratagene). Equal amounts of mRNA were subjected to RT-PCR. The primer sets used for the PCR reactions are as follows: […]

Sp35 [4] = test: Sp35 expression in co-cultures, DRG neuronal and oligodendrocyte cultures treated with NGF
Method: Oligodendrocyte—DRG co-cultures were prepared as described previously. Various concentrations of NGF (0, 10, 50 and 100 ng/ml) were added to oligodendrocyte—DRG co-cultures, DRG neuronal cultures and oligodendrocyte cultures. In all cultures expression of Sp35 and phosphorylated TrkA was examined by […] or immuno-histochemical staining.

Question: COC(=O)[C@@]1(O)C[C@H]2O[C@]1(C)n1c3ccccc3c3c4c(c5c6ccccc6n2c5c31)C(=O)NC4 [K525a] was tested. Which “myelination, as measured by the presence of MBP” value (“myelination, as measured” below) ([1]; concentration 1 nM) did it give?
Answer: promoted myelination

Question: And the “myelination, as measured” value ([1]; concentration 3 nM)?
Answer: promoted myelination

Question: “NGF: Nerve Growth Factor, the TrkA ligand” was tested. Which myelination in co-culture ([2]; in the presence of NGF) did it give?
Answer: inhibited

Question: And the “Sp35 mRNA in DRGs” value (Sp35 [3])?
Answer: induction

Question: What about the “Sp35 in DRG neurons by immunofluorescence” value (Sp35 [4]; 100 ng/ml of NGF, FIG. 10) of the same molecule?
Answer: Upregulation

Question: And the “Sp35 expression in oligodendrocyte/DRG cocultures” value (Sp35 [4]; NGF 0, 10, 50 and 100 ng/ml, FIG. 8)?
Answer: increased

Question: And the “Sp35 expression in cultured oligodendrocytes” value (Sp35 [4]; NGF 0, 10, 50 and 100 ng/ml, FIG. 9)?
Answer: remained constant

B1: Sp35-Fc: extra-cellular portion of human Sp35 (residues 1-532) fused to the hinge and Fc region of human IgG1 (protein)
chain: TGCPPRCECSAQDRAVLCHRKRFVAVPEGIPTETRLLDLGKNRIKTLNQDEFASFPHLEELELNENIVSAVEPGAFNNLFNLRTLGLRSNRLKLIPLGVFTGLSNLTKLDISENKIVILLDYMFQDLYNLKSLEVGDNDLVYISHRAFSGLNSLEQLTLEKCNLTSIPTEALSHLHGLIVLRLRHLNINAIRDYSFKRLYRLKVLEISHWPYLDTMTPNCLYGLNLTSLSITHCNLTAVPYLAVRHLVYLRFLNLSYNPISTIEGSMLHELLRLQEIQLVGGQLAVVEPYAFRGLNYLRVLNVSGNQLTTLEESVFHSVGNLETLILDSNPLACDCRLLWVFRRRWRLNFNRQQPTCATPEFVQGKEFKDFPDVLLPNYFTCRRARIRDRKAQQVFVDEGHTVQFVCRADGDPPPAILWLSPRKHLVSAKSNGRLTVFPDGTLEVRYAQVQDNGTYLCIAANAGGNDSMPAHLHVRSYSPDWPHQPNKTFAFISNQPGE
modifications: left off: a dimerising Fc or GST
notes: extra-cellular portion of human Sp35 (residues 1-532) fused to the hinge and Fc region of human IgG1
Question: How did the “MBP positive oligodendrocytes and myelin internodes” value ([2]; 100 ng/ml NGF, 14 days, compared to controls, FIG. 13) turn out when B1 was run?
Answer: enhancement

Question: And the “number of MBP+ oligodendrocytes” value ([2]; co-culture in the presence of NGF, treated 3 weeks, vs control-Fc, FIG. 5)?
Answer: increased

Question: What about the “number of MBP+ cells, dependence on concentration” value ([2]; increasing concentrations of Sp35-Fc, 3 weeks, NGF present, FIG. 5C) of the same molecule?
Answer: increased as the concentration of the Sp35 antagonist increased

Question: And the “myelination, as measured” value ([1]; Sp35-Fc as comparator for K525a)?
Answer: promoted myelination
